Source: patent US20080193958A1, “Method for the High-Speed Detection and/or Measurement of a Lipase or Phospholipase Activity” (CENTRE NATIONAL DE LA RECHERCHE SCIENTIFIQUE, priority 2005, published 2008)

How the values were obtained:
[1] = target: T1, human pancreatic lipase (HPL) (Homo sapiens, UniProt P16233); experiment: Inhibition of human pancreatic lipase pre-incubated with THL, coated tung oil triglyceride microplate (method A); type: biochemical; conditions: OD at 272 nm
T1 sequence (P16233 17-465): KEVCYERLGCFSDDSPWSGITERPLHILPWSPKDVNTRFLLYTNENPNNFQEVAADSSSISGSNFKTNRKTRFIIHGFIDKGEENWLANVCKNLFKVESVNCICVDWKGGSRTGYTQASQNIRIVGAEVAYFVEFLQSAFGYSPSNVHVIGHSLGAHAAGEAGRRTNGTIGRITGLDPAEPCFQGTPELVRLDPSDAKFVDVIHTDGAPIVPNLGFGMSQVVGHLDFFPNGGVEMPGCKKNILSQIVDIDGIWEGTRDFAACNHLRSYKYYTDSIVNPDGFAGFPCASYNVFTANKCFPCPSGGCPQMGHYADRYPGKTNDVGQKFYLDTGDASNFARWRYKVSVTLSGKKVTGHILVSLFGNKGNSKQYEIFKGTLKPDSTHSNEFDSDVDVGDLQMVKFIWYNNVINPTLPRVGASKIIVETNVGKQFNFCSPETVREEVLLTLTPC
Protocol: FIGS. 4A and 4B represent the inhibition kinetics of HPL (human pancreatic lipase) by THL (tetrahydrolipstatin). The microplate is prepared by “coating” with triglycerides (50 μg/well) extracted from tung oil which contains a high proportion of a-eleostearic acid. A solution (200 μl) of Tris buffer is added to the wells. The activity of the HPL alone, or pre-incubated with the THL, is measured by recording the optical density (method A; FIG. 4A). FIG. 4A represents the optical density (OD) at 272 nm as a function of time. The curve with the black circles corresponds to the lipase HPL alone; the curve with the black squares corresponds to the lipase HPL pre-incubated with THL in a ratio of 1:100 and the curve with the white circles corresponds to the lipase HPL pre-incubated with THL in a ratio of 1:50. The microtitration plates, with “coating” of the lipid substrate, are prepared as has been described above. A solution constituted by Tris buffer and β-cyclodextrin (3 mg/ml) is added into the wells. The optical density at 270 nm is recorded as a function of time for 5 to 10 min (see FIGS. 4A and 4B). A solution of human pancreatic lipase (HPL), alone or pre-incubated with THL (inhibitor), is injected into the wells. The enzymatic activity is then recorded as a function of time by measurement of the OD at 272 nm (method A; FIG. 4A). […]

[2] = target: T1, human pancreatic lipase (HPL); experiment: Inhibition of human pancreatic lipase by THL injected during lipolysis, coated microplate (method B); type: biochemical; conditions: THL 10 nM final injected during lipolysis, HPL 2 nM final
Protocol: FIG. 4B corresponds to a different protocol (method B): after the injection of HPL (at a final concentration of 2 nM), THL is injected into the reaction medium (at a final concentration of 10 nM) during lipolysis. The microtitration plates, with “coating” of the lipid substrate, are prepared as has been described above. A solution constituted by Tris buffer and β-cyclodextrin (3 mg/ml) is added into the wells. The optical density at 270 nm is recorded as a function of time for 5 to 10 min (see FIGS. 4A and 4B). A solution of human pancreatic lipase (HPL), alone or pre-incubated with THL (inhibitor), is injected into the wells. The enzymatic activity is then recorded as a function of time by measurement of the OD at 272 nm (method A; FIG. 4A). The pre-incubation of HPL with THL, at a molar excess of 1 to 100 or of 1 to 50 for 10 min, reduces the initial lipase activity by 75% or 40% respectively (see FIG. 4A). The effect of THL on the lipase activity has also been measured by injecting THL during lipolysis (method B; FIG. 4B). The injection of THL (at a final concentration of 10 nM) reduces the activity of HPL by approximately 40%.

## CCCCCCCCCCC[C@@H](C[C@@H]1OC(=O)[C@H]1CCCCCC)OC(=O)[C@H](CC(C)C)NC=O [THL, Tetrahydrolipstatin]
[1]; HPL pre-incubated with THL at a molar excess of 1 to 50 for 10 min
  reduction of the initial lipase activity: 40%
[1]; HPL pre-incubated with THL at a molar excess of 1 to 100 for 10 min
  reduction of the initial lipase activity: 75%
[2]
  reduction of the activity of HPL: approximately 40%
